Columns and labels:
[1] = target: T1, CDK2/cyclin A (Homo sapiens, UniProt P24941); assay: Inhibitory activity against CDK2/cyclin A enzyme (GST-RB phosphorylation, P32-γ-ATP, scintillation counting); assay type: biochemical; conditions: 100 μM ATP, GST-RB substrate, 30° C. 30 minutes
T1 construct: made in house; host or cells: insect cells infected with baculoviruses
Description: (§1) Analysis of inhibitory activity against CDK2/cyclin A and CDK4/cyclin D1 enzyme.
(§2) The inhibitory activity against CDK2 is measured by referring to Kitagawa, M. et al., Oncogene 9:2549, 1994 and the inhibitory activity against CDK4 is measured by referring to Carlson, B. A. et al., Cancer Research 56:2473,1996.
(§3) As for CDK2, either the extract from the insect cell infected both with baculovirus which expresses CDK2 gene and baculovirus which expresses cyclin A gene or the active enzyme which had been purified therefrom was used. CDK4 enzyme was also obtained from the insect cell infected both with baculovirus expressing CDK4 gene and baculovirus expressing cyclin D1 gene. As the substrate for CDK2, either histon H1 or Rb protein was used. Rb protein was also used as the substrate for CDK4.
(§4) Specifically the activities of enzymes CDK2/cyclin A and CDK4/cyclin D1 were determined according to the following procedure.
(§5) 100 ng of enzyme was reacted in a total 1000 μl of 20 mM Tris (pH 8.0), 100 mM NaCl, 10 mM MgCl2 buffer solution containing 20 μg of GST-RB protein, 100 μM of ATP and 5 μCi of P32-γ-ATP at 30° C. for 30 minutes. Then, the enzyme reaction was stopped by adding EDTA to a concentration of 20 mM. Subsequently, 30 μl of 50% glutathione bead (purchased from Pharmacia) was added to attach GST-RB to the bead, which was washed three times with 20mM Tris (pH 8.0), 100 mM NaCl, 10 mM EDTA solution, and then scintillation counting was carried out. To analyze the inhibitory activity of the compound, the inhibitor having a proper concentration was added to the enzyme reaction solution, and then the enzyme activity was measured according to the above method.
(§6) The inhibitory activity of the compound of formula (1) according to the present invention against CDK2 and CDK4 is represented as IC50 value. The compounds which are not included in Examples(compound 63, 64, 65 and 66) were synthesized and purified according to the same procedure as examples, and then IC50 thereof was measured.

[2] = target: T2, CDK4/cyclin D1 (Homo sapiens, UniProt P11802); assay: Inhibitory activity against CDK4/cyclin D1 enzyme (GST-RB phosphorylation, P32-γ-ATP, scintillation counting); assay type: biochemical; conditions: CDK4/cyclin D1, 100 μM ATP, GST-RB substrate, 30° C. 30 minutes
T2 construct: made in house; host or cells: insect cells infected with baculoviruses
Description: as §1, §2, §3, §4, §5, §6

T2 sequence (P11802 whole entry, species assumed): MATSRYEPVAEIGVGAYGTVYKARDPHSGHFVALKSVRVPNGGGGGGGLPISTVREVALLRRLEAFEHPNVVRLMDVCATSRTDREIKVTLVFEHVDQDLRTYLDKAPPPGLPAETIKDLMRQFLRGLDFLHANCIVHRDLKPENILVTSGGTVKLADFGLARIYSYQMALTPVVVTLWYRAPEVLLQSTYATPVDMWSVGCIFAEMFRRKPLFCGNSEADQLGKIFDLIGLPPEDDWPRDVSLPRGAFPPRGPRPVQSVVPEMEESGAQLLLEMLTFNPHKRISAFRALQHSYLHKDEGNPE
T2 sequence (P24385 whole entry partner, species assumed): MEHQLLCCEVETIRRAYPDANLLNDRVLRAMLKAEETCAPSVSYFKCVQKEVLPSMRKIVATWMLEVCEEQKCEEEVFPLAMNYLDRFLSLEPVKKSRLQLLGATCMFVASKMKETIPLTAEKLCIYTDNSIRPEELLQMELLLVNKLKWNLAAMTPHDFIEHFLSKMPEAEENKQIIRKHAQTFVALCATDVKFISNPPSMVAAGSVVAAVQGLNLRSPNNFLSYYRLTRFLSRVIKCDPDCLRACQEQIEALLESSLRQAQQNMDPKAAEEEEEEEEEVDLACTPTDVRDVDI

| IC50 [1] | IC50 [2] | SMILES |
| --- | --- | --- |
| > 200 µM | > 200 µM | COc1ccc2c(=O)cc(-c3ccc(Cl)cc3)oc2c1 [Compound 1, 2-(4-chloro-phenyl)-7-methoxy-chromen-4-one] |
| > 200 µM | > 200 µM | COc1ccc2c(=O)cc(-c3ccccc3)oc2c1 [Compound 2, 7-methoxy-2-phenyl-chromen-4-one] |
| > 100 µM | > 100 µM | COc1cccc2oc(-c3ccc4c(c3)OCO4)c(O)c(=O)c12 [Compound 4, 2-(benzo[1,3]dioxol-5-yl)-3-hydroxy-5-methoxy-chromen-4-one] |
| > 100 µM | > 100 µM | COc1ccc2oc(-c3ccc4c(c3)OCO4)c(O)c(=O)c2c1 [Compound 5, 2-(benzo[1,3]dioxol-5-yl)-3-hydroxy-6-methoxy-chromen-4-one] |
| > 100 µM | > 100 µM | COc1ccc2c(=O)c(O)c(-c3ccc4c(c3)OCO4)oc2c1 [Compound 6, 2-(benzo[1,3]dioxol-5-yl)-3-hydroxy-7-methoxy-chromen-4-one] |
| > 100 µM | > 100 µM | COc1ccc2c(=O)c(O)c(-c3ccc(Cl)cc3)oc2c1 [Compound 8, 2-(4-chloro-phenyl)-3-hydroxy-7-methoxy-chromen-4-one] |
| > 100 µM | > 100 µM | COc1ccc(-c2oc3c([N+](=O)[O-])cc(Cl)cc3c(=O)c2O)cc1 [Compound 9, 6-chloro-3-hydroxy-2-(4-methoxy-phenyl)-8-nitro-chromen-4-one] |
| > 100 µM | > 100 µM | COc1ccc(-c2oc3c(Cl)cc(Cl)cc3c(=O)c2O)cc1 [Compound 10, 6,8-dichloro-3-hydroxy-2-(4-methoxy-phenyl)-chromen-4-one] |
| > 100 µM | > 100 µM | COc1ccc(-c2oc3ccccc3c(=O)c2O)cc1 [Compound 11, 3-hydroxy-2-(4-methoxy-phenyl)-chromen-4-one] |
| < 5 µM | < 10 µM | O=c1c(O)c(-c2ccc(O)c(O)c2)oc2ccc(Cl)cc12 [Compound 12, 6-chloro-2-(3,4-dihydroxyphenyl)-3-hydroxy-4H-chromen-4-one] |
| < 5 µM | < 5 µM | O=c1c(O)c(-c2ccc(O)c(O)c2)oc2ccc(Br)cc12 [Compound 13, 6-bromo-2-(3,4-dihydroxyphenyl)-3-hydroxy-4H-chromen-4-one] |
| < 5 µM | < 5 µM | Nc1ccc2oc(-c3ccc(O)c(O)c3)c(O)c(=O)c2c1 [Compound 15, 6-amino-2-(3,4-dihydroxyphenyl)-3-hydroxy-4H-chromen-4-one] |
| < 10 µM | < 10 µM | COc1ccc2oc(-c3ccc(O)c(O)c3)c(O)c(=O)c2c1 [Compound 16, 2-(3,4-dihydroxyphenyl)-3-hydroxy-6-methoxy-4H-chromen-4-one] |
| < 10 µM | < 10 µM | Cc1ccc2oc(-c3ccc(O)c(O)c3)c(O)c(=O)c2c1 [Compound 18, 6-methyl-2-(3,4-dihydroxyphenyl)-3-hydroxy-4H-chromen-4-one] |
| < 10 µM | < 10 µM | O=c1c(O)c(-c2ccc(O)c(O)c2)oc2c(Cl)cc(Cl)cc12 [Compound 19, 6,8-dichloro-2-(3,4-dihydroxyphenyl)-3-hydroxy-4H-chromen-4-one] |
| < 5 µM | < 5 µM | O=c1c(O)c(-c2ccc(O)c(O)c2)oc2c(Br)cc(Br)cc12 [Compound 20, 6,8-Dibromo-2-(3,4-dihydroxyphenyl)-3-hydroxy-4H-chromen-4-one] |
| < 10 µM | < 10 µM | O=c1c(O)c(-c2ccc(O)c(O)c2)oc2c(F)cc(F)cc12 [Compound 21, 6,8-difluoro-2-(3,4-dihydroxyphenyl)-3-hydroxy-4H-chromen-4-one] |
| < 10 µM | < 10 µM | Cc1cc2oc(-c3ccc(O)c(O)c3)c(O)c(=O)c2cc1Cl [Compound 22, 6-chloro-2-(3,4-dihydroxyphenyl)-3-hydroxy-7-methyl-4H-chromen4-one] |
| < 30 µM | < 30 µM | COc1ccc2c(=O)c(O)c(-c3ccc(O)c(O)c3)oc2c1 [Compound 23, 2-(3,4-Dihydroxyphenyl)-3-hydroxy-7-methoxy-4H-chromen-4-one] |
| < 10 µM | < 10 µM | COc1ccc2c(=O)c(O)c(-c3ccc(O)c(O)c3)oc2c1O [Compound 24, 2-(3,4-dihydroxyphenyl)-3,8-dihydroxy-7-methoxy-4H-chromen-4-one] |
| < 10 µM | < 10 µM | O=c1c(O)c(-c2ccc(O)c(O)c2)oc2c(O)cccc12 [Compound 25, 2-(3,4-dihydroxyphenyl)-3,8-dihydroxy-4H-chromen-4-one] |
| < 10 µM | < 10 µM | Cc1cc2oc(-c3ccc(O)c(O)c3)c(O)c(=O)c2cc1C [Compound 26, 2-(3,4-dihydroxyphenyl)-6,7-dimethyl-3-hydroxy-4H-chromen-4-one] |
| < 10 µM | < 10 µM | COc1cccc2oc(-c3ccc(O)c(O)c3)c(O)c(=O)c12 [Compound 27, 2-(3,4-dihydroxyphenyl)-3-hydroxy-5-methoxy-4H-chromen-4-one] |
| 17.8 µM | 1.8 µM | O=c1c(O)c(-c2ccc(O)c(O)c2)oc2ccc(NS(=O)(=O)c3ccc(Br)cc3)cc12 [Compound 29, 4-bromo-N-[2-(3,4-dihydroxyphenyl)-3-hydroxy-4-oxo-4H-chromen-6-yl]benzenesulfonamide] |
| 14 µM | 2.1 µM | O=c1c(O)c(-c2ccc(O)c(O)c2)oc2ccc(NS(=O)(=O)c3cccc(Br)c3)cc12 [Compound 30, 3-bromo-N-[2-(3,4-dihydroxyphenyl)-3-hydroxy-4-oxo-4H-chromen-6-yl]benzenesulfonamide] |
| 35.5 µM | 4.2 µM | O=c1c(O)c(-c2ccc(O)c(O)c2)oc2ccc(NS(=O)(=O)c3ccc4ccccc4c3)cc12 [Compound 31, N-[2-(3,4-dihydroxyphenyl)-3-hydroxy-4-oxo-4H-chromen-6-yl]-2-naphthalenesulfonamide] |
| 35.5 µM | 4.2 µM | CN(C)c1cccc2c(S(=O)(=O)Nc3ccc4oc(-c5ccc(O)c(O)c5)c(O)c(=O)c4c3)cccc12 [Compound 32, N-[2-(3,4-dihydroxyphenyl)-3-hydroxy-4-oxo-4H-chromen-6-yl]-5-(dimethylamino)-1-naphthalenesulfonamide] |
| 63 µM | 5 µM | O=c1c(O)c(-c2ccc(O)c(O)c2)oc2ccc(NS(=O)(=O)CCc3cccc4ccccc34)cc12 [Compound 33, N-[2-(3,4-dihydroxyphenyl)-3-hydroxy-4-oxo-4H-chromen-6-yl]-2-(1-naphthyl)-1-ethanesulfonamide] |
| – | 0.94 µM | O=c1c(O)c(-c2ccc(O)c(O)c2)oc2ccc(NS(=O)(=O)c3ccc(N4CCOCC4)c([N+](=O)[O-])c3)cc12 [Compound 48, N-[2-(3,4-dihydroxyphenyl)-3-hydroxy-4-oxo-4H-chromen-6-yl]-4-(4-morpholinyl)-3-nitrobenzenesulfonamide] |

| SMILES | IC50 [1] | IC50 [2] |
| --- | --- | --- |
| O=c1cc(-c2ccccc2)oc2cc(O)ccc12 [Compound 3, 7-hydroxy-2-phenyl-chromen-4-one] | > 200 µM | > 200 µM |
| COc1ccc(-c2oc3cc(OC)ccc3c(=O)c2O)cc1 [Compound 7, 3-hydroxy-7-methoxy-2-(4-methoxy-phenyl)-chromen-4-one] | > 100 µM | > 100 µM |
